Test results reported in the supplement of paper PMC10307832.

Columns and labels:
Assay in all cases: relative viability (nuclei count vs DMSO), 5 days (fraction); higher = more cells survive
[1] = compound: CN(C/C=C/C1=CC=C(C=C1)Cl)CC2=CC=CC=C2N(CCO)S(=O)(=O)C3=CC=C(C=C3)OC [KN-93]
Procedure, shortened: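 Only plates meeting two conditions passed: control CV below 25% and at least one doubling. Lung cancer cell lines, kept overnight at 37 °C in 1536-well plates, were pinned with five library-drug doses (not always all listed) √10 apart on vehicle-anchored plates and grown 5 days without medium change. A one-step fix, permeabilisation and Hoechst stain preceded 4× imaging and MetaXpress nuclear counting. Viability equals treated-well nuclei divided by vehicle-well nuclei, as the median over plates.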

[2] = compound: CN(C/C=C/C1=CC=C(C=C1)Cl)CC2=CC=CC=C2N(CCO)S(=O)(=O)C3=CC=C(C=C3)OC [KN-93] + Cc1nc(Nc2ncc(C(=O)Nc3c(C)cccc3Cl)s2)cc(N2CCN(CCO)CC2)n1 [Dasatinib] (partner 0.075 µM)
Procedure, shortened: (§1)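 The day after seeding in 1536-well plates, lung cancer cell lines were treated by pin tool with a single drug, or with a fixed anchor-drug dose together with five library-drug doses (not always all listed) in √10 steps. After 5 days, a combined fix-and-stain solution (final 0.05% Triton X-100, 1% formaldehyde, 1 ug/ml Hoechst) was added. Nuclei counted on 4× images gave relative viability as treated counts over vehicle counts, reported as the median of duplicate plates.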

[3] = compound: CN(C/C=C/C1=CC=C(C=C1)Cl)CC2=CC=CC=C2N(CCO)S(=O)(=O)C3=CC=C(C=C3)OC [KN-93] + O=C(CCCCCCC(=O)Nc1ccccc1)NO [Vorinostat] (partner 1 µM)
Procedure, shortened: as §1

[4] = compound: CN(C/C=C/C1=CC=C(C=C1)Cl)CC2=CC=CC=C2N(CCO)S(=O)(=O)C3=CC=C(C=C3)OC [KN-93] + CS(=O)(=O)CCNCc1ccc(-c2ccc3ncnc(Nc4ccc(OCc5cccc(F)c5)c(Cl)c4)c3c2)o1 [Lapatinib] (partner 2 µM)
Procedure, shortened: as §1

[5] = compound: CN(C/C=C/C1=CC=C(C=C1)Cl)CC2=CC=CC=C2N(CCO)S(=O)(=O)C3=CC=C(C=C3)OC [KN-93] + CC1(C)CCC(c2ccc(Cl)cc2)=C(CN2CCN(c3ccc(C(=O)NS(=O)(=O)c4ccc(N[C@H](CCN5CCOCC5)CSc5ccccc5)c(S(=O)(=O)C(F)(F)F)c4)cc3)CC2)C1 [Navitoclax] (partner 0.5 µM)
Procedure, shortened: as §1

Cell Line | relative viability ([1]; 0.08 µM) | relative viability ([1]; 0.253 µM) | relative viability ([1]; 2.53 µM) | relative viability ([1]; 8 µM) | relative viability ([2]; first compound 0.08 µM) | relative viability ([2]; first compound 0.253 µM) | relative viability ([2]; first compound 2.53 µM) | relative viability ([2]; first compound 8 µM) | relative viability ([3]; first compound 0.08 µM) | relative viability ([3]; first compound 0.253 µM) | relative viability ([3]; first compound 2.53 µM) | relative viability ([3]; first compound 8 µM) | relative viability ([4]; first compound 0.08 µM) | relative viability ([4]; first compound 0.253 µM) | relative viability ([4]; first compound 2.53 µM) | relative viability ([4]; first compound 8 µM) | relative viability ([5]; first compound 0.08 µM) | relative viability ([5]; first compound 0.253 µM) | relative viability ([5]; first compound 2.53 µM) | relative viability ([5]; first compound 8 µM)
EPLC-272H | 0.899 | 0.965 | 0.92 | 0.59 | 0.32 | 0.452 | 0.274 | 0.206 | 0.436 | 0.212 | 0.274 | 0.152 | 0.925 | 1.03 | 0.981 | 0.774 | 0.945 | 1.27 | 1.18 | 0.849
RERF-LC-KJ | 0.915 | 1.05 | 0.967 | 0.693 | 0.664 | 0.788 | 0.672 | 0.277 | 0.785 | 0.643 | 0.696 | 0.577 | 0.803 | 0.81 | 1.01 | 0.776 | 0.863 | 0.954 | 0.651 | 0.673
EKVX | 0.839 | 0.768 | 1.04 | 0.691 | 0.42 | 0.429 | 0.358 | 0.389 | 0.642 | 0.653 | 0.655 | 0.585 | 0.209 | 0.133 | 0.194 | 0.153 | 0.824 | 0.742 | 1.13 | 0.305
LK-2 | 1.07 | 1.17 | 1.37 | 0.846 | 0.248 | 0.315 | 0.288 | 0.417 | 0.241 | 0.279 | 0.426 | 0.19 | 0.972 | 1.26 | 1.02 | 0.862 | 0.743 | 0.677 | 1.12 | 0.567
NCI-H596 | 0.913 | 1.15 | 0.941 | 0.5 | 0.607 | 0.642 | 0.587 | 0.421 | 0.654 | 0.528 | 0.656 | 0.324 | 1.05 | 0.945 | 1.23 | 0.985 | 0.996 | 0.891 | 0.966 | 0.575
NCI-H322M | 0.872 | 0.941 | 0.959 | 0.768 | 0.256 | 0.25 | 0.26 | 0.204 | 0.917 | 0.836 | 0.826 | 0.782 | 0.605 | 0.633 | 0.61 | 0.566 | 1.19 | 1.09 | 1.2 | 1.11
NCI-H1651 | 0.932 | 1.07 | 1.09 | 0.865 | 0.491 | 0.461 | 0.626 | 0.246 | 0.517 | 0.607 | 0.601 | 0.528 | 0.732 | 1.02 | 0.914 | 0.664 | 0.997 | 1.08 | 1.09 | 0.482
IA-LM | 0.896 | 0.948 | 1.47 | 0.875 | – | – | – | – | 0.428 | 1.02 | 0.982 | 1.05 | 0.837 | 0.831 | 1.31 | 0.572 | 0.975 | 0.826 | 1.23 | 0.439
NCI-H1734 | 0.942 | 1.15 | 1.14 | 0.668 | 0.478 | 0.544 | 0.577 | 0.358 | 0.808 | 0.837 | 0.944 | 0.576 | 1.15 | 1.1 | 1.6 | 0.88 | 0.649 | 0.964 | 0.816 | 0.622
SK-MES-1 | 0.888 | 0.981 | 1.07 | 0.766 | 0.42 | 0.318 | 0.367 | 0.261 | 1.11 | 1.12 | 1.14 | 0.924 | 0.464 | 0.425 | 0.514 | 0.425 | 1.14 | 1.18 | 1.56 | 1.21
201T | 1.03 | 0.85 | 0.958 | 0.684 | 0.604 | 0.421 | 0.533 | 0.342 | 0.875 | 0.958 | 0.873 | 0.698 | 1.1 | 0.955 | 1.03 | 0.988 | 1.23 | 1.21 | 1.19 | 1.07
ChaGo-K-1 | 0.887 | 1.14 | 0.999 | 0.72 | 0.555 | 0.662 | 0.534 | 0.341 | 0.755 | 0.896 | 0.822 | 0.582 | – | – | – | – | 1.58 | 1.08 | 1 | 0.54
HCC-366 | 0.835 | 1.1 | 1.11 | 0.863 | 0.513 | 0.562 | 0.737 | 0.223 | 0.301 | 0.251 | 0.514 | 0.168 | – | 1.24 | 1.7 | 0.83 | – | 1.35 | 1.1 | 0.907
NCI-H460 | 0.821 | 1.06 | 1.03 | 0.652 | 0.489 | 0.526 | 0.726 | 0.35 | 0.308 | 0.618 | 1.08 | 0.485 | 0.302 | 1.27 | 1.12 | 0.45 | 0.39 | 1.29 | – | 0.63
NCI-H1355 | 0.834 | 0.891 | 1.06 | 0.724 | 0.588 | 0.551 | 0.695 | 0.503 | 0.685 | 0.516 | 0.739 | 0.578 | 0.954 | 0.79 | 1.05 | 0.913 | 0.874 | 0.722 | 0.916 | 0.74
